Test [1] deals with T1, GluR5 receptor (Homo sapiens, UniProt P39086).
T1 construct: expressed in transfected cells; host or cells: HEK293
Nature of the test: Functional GluR5 assay: inhibition of domoate-induced increase in intracellular free calcium (FLIPR, Fluo-4). The test is classed as cell-based. The following applies: for IC50: HEK293 cells stably expressing un-edited GluR5, inhibition of 2 μM domoate-induced Cai elevation. An excerpt:
(§1) In this example the inhibition of domoate-induced increase in intracellular free calcium concentration (Cai) is used as a measure for glutamate antagonist activity of test substances. Domoate is a close analog of kainite, and a potent glutamate agonist.
(§2) Human embryonic HEK293 cells stably expressing GluR5 receptors and GluR6 receptors, respectively, in their un-edited forms, are used.
In this example the activity of Compound A of the invention (5-carboxyl-2,4-di-benzamido-benzoic acid), obtained according to Ueda & Imai [Ueda M & Imai Y: Synthesis of polyamides by ring-opening polyaddition of bis-3,1-benzoxazin-4-ones with aliphatic diamines; J. Polym. Sci. 1979 17 (4) 1163-1173], is compared to the action of ATPA, a GluR5 receptor agonist, and CNQX, a GluR5 receptor antagonist that inhibits the activity of the agonist.
(§3) Fluorometric methods for measuring Cai have been developed [see e.g. Tsien et al., J. Cell. Biol. 1982 94 325]. The calcium-chelating fluorochromes (tetracarboxylic acids) are loaded into the cells as acetoxymethyl esters and subsequently released by unspecific intracellular esterase's. The free acids, which are impermeable to the cell membrane, are maintained in the cell for hours. The fluorescence spectrum (either EXmax, EMmax or both) is changed by the binding of calcium. The fluorescence is then directly proportional to the Cai.
(§4) The present method uses the fluorochromes Fluo-3 or Fluo-4 as the calcium-chelator. Fluo-3/Fluo-4 is virtually nonfluorescent without calcium but the calcium-Fluo-3/Fluo-4 complexes show a bright fluorescence (EMmax=526 nm) after excitation around 500 nm (EXmax=505 nm). This fluorescence spectrum is similar to the spectrum of fluorescein. Since excitation and emission is in the visible light region of the spectrum standard equipment without quarts optics may be used.
The HEK293 cells stably expressing GluR5 or GluR6 expressing are grown in Dulbecco's Modified Eagle Medium (DMEM) containing 10% foetal calf serum, in polystyrene culture flasks (175 cm^2) in a humidified atmosphere of 5% CO2 in air, at 37° C. Confluency of cells should be 80-90% on day of plating. GluR5 or GluR6 cells are rinsed with 10 ml of phosphate buffered saline (PBS), then added 1.5 ml of Trypsin-EDTA and left in the incubator for 5 min. After addition of 10 ml of growth media, cells are resuspended by trituration with a 10 ml pipette 15 times. […]
(§5) After the loading period, the loading media is aspirated and the cells are washed twice with 100 μl Na^+ free Ringer solution (NN: 10 mM HEPES, 140 mM Choline chloride, 5 mM KCl, 1 mM MgCl2, 10 mM CaCl2, pH 7.4) to remove extracellular dye. 100 μl NN is added to each well, and the fluorescence is measured in the FLIPR (Fluorescence Image Plate Reader). […]

The target of another test is T2, GluR6 receptors (Homo sapiens, UniProt Q13002).
T2 construct: expressed in transfected cells; host or cells: HEK293
Nature of the test: Functional GluR6 assay: inhibition of domoate-induced increase in intracellular free calcium (FLIPR, Fluo-4). The test is classed as cell-based. The following applies: for IC50: HEK293 cells stably expressing un-edited GluR6, inhibition of 2 μM domoate-induced Cai elevation.
Source text: as §1, §2, §3, §4
The HEK293 cells stably expressing GluR5 or GluR6 expressing are grown in Dulbecco's Modified Eagle Medium (DMEM) containing 10% foetal calf serum, in polystyrene culture flasks (175 cm^2) in a humidified atmosphere of 5% CO2 in air, at 37° C. Confluency of cells should be 80-90% on day of plating. GluR5 or GluR6 cells are rinsed with 10 ml of phosphate buffered saline (PBS), then added 1.5 ml of Trypsin-EDTA and left in the incubator for 5 min. After addition of 10 ml of growth media, cells are resuspended by trituration with a 10 ml pipette 15 times.
The cells are seeded at a density of 0.5-1×10^6 cells/ml (100 μl/well) in black-walled, clear bottom, 96-well plates pre-treated with 0.001% PEI solution (75 μl/well for ≧30 min). Plated cells were allowed to proliferate for 24 h before loading with dye.
Fluo-4-AM (1 mg; Molecular Probes) is added 912 μl DMSO containing 25 mg/150 μl Pluoronic F-127 (Molecular Probes). […]
as §5
Reading intervals: preincubation—10 sec.×7 and 3 sec.×3 antagonist phase—3 sec.×17 and 10 sec.×12 […]

Test [2] deals with T1, GluR5 receptor. Nature of the test: GluR5 binding assay: displacement of 3H-ATPA from membranes of HEK293 cells expressing GluR5. As to the method: The amount of radioactivity on the filters is determined by conventional liquid scintillation counting. Specific binding is total binding minus non-specific binding.
Test [3] deals with T1, GluR5 receptor. The following applies: Clarke et al., Nature 1997 389 599-603; read-out: Kd of binding to the GluR5 receptor; cited from earlier work.
Setting [4] is: inhibition of specific binding of 3 nM 3H-ATPA, HEK293 GluR5 cell membranes, 60 minutes at 2° C., read-out: GluR5 Binding IC50.

Some results are limits rather than exact numbers.

T2 sequence (Q13002 32-908): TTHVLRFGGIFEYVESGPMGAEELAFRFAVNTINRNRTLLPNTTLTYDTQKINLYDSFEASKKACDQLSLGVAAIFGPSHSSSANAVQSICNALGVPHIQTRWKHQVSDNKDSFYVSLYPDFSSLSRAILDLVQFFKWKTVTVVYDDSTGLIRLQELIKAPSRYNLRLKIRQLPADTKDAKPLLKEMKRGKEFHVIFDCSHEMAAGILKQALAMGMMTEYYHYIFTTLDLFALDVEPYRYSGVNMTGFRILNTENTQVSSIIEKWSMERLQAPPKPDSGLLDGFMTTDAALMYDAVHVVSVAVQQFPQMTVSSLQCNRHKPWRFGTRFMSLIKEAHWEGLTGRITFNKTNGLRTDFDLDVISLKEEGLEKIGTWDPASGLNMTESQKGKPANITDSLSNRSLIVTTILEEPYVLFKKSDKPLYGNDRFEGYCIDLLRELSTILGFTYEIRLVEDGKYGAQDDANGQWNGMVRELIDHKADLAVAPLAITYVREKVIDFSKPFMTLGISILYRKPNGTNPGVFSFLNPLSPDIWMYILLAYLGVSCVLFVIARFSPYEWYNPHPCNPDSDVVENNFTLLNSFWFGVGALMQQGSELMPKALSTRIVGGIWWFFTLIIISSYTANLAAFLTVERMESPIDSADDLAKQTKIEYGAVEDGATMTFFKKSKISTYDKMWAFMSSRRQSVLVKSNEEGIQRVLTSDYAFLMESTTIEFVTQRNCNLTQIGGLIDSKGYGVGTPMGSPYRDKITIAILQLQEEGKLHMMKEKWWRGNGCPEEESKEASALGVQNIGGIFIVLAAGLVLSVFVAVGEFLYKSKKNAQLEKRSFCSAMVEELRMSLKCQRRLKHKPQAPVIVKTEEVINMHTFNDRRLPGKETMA
T1 sequence (P39086 31-918): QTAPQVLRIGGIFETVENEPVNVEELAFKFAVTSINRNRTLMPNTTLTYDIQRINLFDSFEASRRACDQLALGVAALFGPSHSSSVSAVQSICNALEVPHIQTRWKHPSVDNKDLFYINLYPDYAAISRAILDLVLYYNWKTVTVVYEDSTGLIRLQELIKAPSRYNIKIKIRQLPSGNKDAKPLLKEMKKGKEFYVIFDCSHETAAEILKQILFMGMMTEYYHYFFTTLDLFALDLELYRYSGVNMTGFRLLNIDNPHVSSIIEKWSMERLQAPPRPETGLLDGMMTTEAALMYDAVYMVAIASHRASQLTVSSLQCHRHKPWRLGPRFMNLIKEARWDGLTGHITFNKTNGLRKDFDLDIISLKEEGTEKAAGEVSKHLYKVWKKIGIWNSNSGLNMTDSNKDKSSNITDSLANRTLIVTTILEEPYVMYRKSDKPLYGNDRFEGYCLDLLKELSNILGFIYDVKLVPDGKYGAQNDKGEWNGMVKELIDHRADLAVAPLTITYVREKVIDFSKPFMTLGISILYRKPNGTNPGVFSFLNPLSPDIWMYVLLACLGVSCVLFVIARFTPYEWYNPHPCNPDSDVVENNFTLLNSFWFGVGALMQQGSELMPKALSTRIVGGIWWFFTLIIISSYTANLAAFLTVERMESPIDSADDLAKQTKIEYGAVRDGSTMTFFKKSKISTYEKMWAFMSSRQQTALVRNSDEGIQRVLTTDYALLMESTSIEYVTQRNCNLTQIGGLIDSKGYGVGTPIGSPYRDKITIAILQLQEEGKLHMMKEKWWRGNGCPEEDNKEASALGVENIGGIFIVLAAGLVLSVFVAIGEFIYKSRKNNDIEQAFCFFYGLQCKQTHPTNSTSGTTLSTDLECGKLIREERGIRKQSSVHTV

Consider `O=C(Nc1cc(NC(=O)c2ccccc2)c(C(=O)O)cc1C(=O)O)c1ccccc1` [Compound A, 5-carboxyl-2,4-di-benzamido-benzoic acid], for which the IC50 (as a rule, the midpoint of a concentration-inhibition curve) is 1900 nM at GluR5 receptor [1], greater than 30000 nM at GluR6 receptors and greater than 10000 nM at GluR5 receptor [2] (setting [4]). Also, the “Mode of action at the GluR5 receptor” value at GluR5 receptor [1] (conclusion from functional activity without binding (Table 1)) is recorded as “non-competitive antagonist of the GluR5 receptor”. Moreover, the “Selectivity GluR5 over GluR6” value on GluR6 receptors (conclusion from functional GluR5 and GluR6 data (Table 1)) is on record as “activity only at the GluR5 receptor, not at the GluR6 receptor”.

With `CC(C)(C)c1onc(O)c1CC(N)C(=O)O` (stereo not drawn) [ATPA, 2-amino-3-(3-hydroxy-5-tert-butylisoxazol-4-yl)propionic acid], the half-maximal inhibitory concentration (IC50) at GluR5 receptor [1] was 700 nM; on GluR6 receptors it was greater than 30000 nM; on GluR5 receptor [2], 24 nM. For the same compound, the Kd (as a rule, the constant that tells how readily two partners part at equilibrium) on GluR5 receptor [3] was 4.3 nM.

With `N#Cc1cc2[nH]c(=O)c(=O)[nH]c2cc1[N+](=O)[O-]` [CNQX], the IC50 at GluR5 receptor [1] is 3300 nM; at GluR6 receptors it was 7600 nM; at GluR5 receptor [2] (setting [4]) it was 720 nM.
